The source made the active and inactive calls. The calls are words filed in the database; no cut-off is given here.
Assays:
Danio rerio [1] = species: Danio rerio; experiment: Toxicity in wild type zebrafish embryos assessed as normal embryo at 2500 ug/ml treated for 96 hrs post fertilization starting from 6 hrs post fertilization by inverted microscopic analysis relative to control; format: organism-based; conditions: in vivo
Danio rerio [2] = species: Danio rerio; experiment: Toxicity in wild type zebrafish embryos assessed as blood circulation at 2500 ug/ml treated for 96 hrs post fertilization starting from 6 hrs post fertilization by inverted microscopic analysis relative to control; format: organism-based; conditions: in vivo
Danio rerio [3] = experiment: Toxicity in wild type zebrafish embryos assessed as yolk edema at 1000 ug/ml treated for 96 hrs post fertilization starting from 6 hrs post fertilization by inverted microscopic analysis relative to control; format: organism-based; conditions: in vivo
[4] = Toxicity in wild type zebrafish embryos assessed as dead embryo at 2000 ug/ml treated for 96 hrs post fertilization starting from 6 hrs post fertilization by inverted microscopic analysis relative to control; format: organism-based, Danio rerio; conditions: in vivo, read-out: Activity
Danio rerio [5] = species: Danio rerio; experiment: Toxicity in wild type zebrafish embryos assessed as normal embryo at 100 ug/ml treated for 96 hrs post fertilization starting from 6 hrs post fertilization by inverted microscopic analysis relative to control; format: organism-based; conditions: in vivo
Danio rerio [6] = species: Danio rerio; experiment: Toxicity in wild type zebrafish embryos assessed as growth retardation at 500 ug/ml treated for 96 hrs post fertilization starting from 6 hrs post fertilization by inverted microscopic analysis relative to control; format: organism-based; conditions: in vivo
Danio rerio [7] = species: Danio rerio; experiment: Toxicity in wild type zebrafish embryos assessed as growth retardation at 2500 ug/ml treated for 96 hrs post fertilization starting from 6 hrs post fertilization by inverted microscopic analysis relative to control; format: organism-based; conditions: in vivo
[8] = Toxicity in wild type zebrafish embryos assessed as dead embryo at 500 ug/ml treated for 96 hrs post fertilization starting from 6 hrs post fertilization by inverted microscopic analysis relative to control; format: organism-based, Danio rerio; conditions: in vivo, read-out: Activity
Danio rerio [9] = species: Danio rerio; experiment: Toxicity in wild type zebrafish embryos assessed as blood circulation at 2000 ug/ml treated for 96 hrs post fertilization starting from 6 hrs post fertilization by inverted microscopic analysis relative to control; format: organism-based; conditions: in vivo
Danio rerio [10] = species: Danio rerio; experiment: Toxicity in wild type zebrafish embryos assessed as notochord at 500 ug/ml treated for 96 hrs post fertilization starting from 6 hrs post fertilization by inverted microscopic analysis relative to control; format: organism-based; conditions: in vivo
Danio rerio [11] = experiment: Toxicity in wild type zebrafish embryos assessed as yolk edema at 2500 ug/ml treated for 96 hrs post fertilization starting from 6 hrs post fertilization by inverted microscopic analysis relative to control; format: organism-based; conditions: in vivo
Danio rerio [12] = species: Danio rerio; experiment: Toxicity in wild type zebrafish embryos assessed as teratogenic embryo at 500 ug/ml treated for 96 hrs post fertilization starting from 6 hrs post fertilization by inverted microscopic analysis relative to control; format: organism-based; conditions: in vivo
Danio rerio [13] = species: Danio rerio; experiment: Toxicity in wild type zebrafish embryos assessed as heart beat at 2500 ug/ml treated for 96 hrs post fertilization starting from 6 hrs post fertilization by inverted microscopic analysis relative to control; format: organism-based; conditions: in vivo
Danio rerio [14] = species: Danio rerio; experiment: Toxicity in wild type zebrafish embryos assessed as heart beat at 100 ug/ml treated for 96 hrs post fertilization starting from 6 hrs post fertilization by inverted microscopic analysis relative to control; format: organism-based; conditions: in vivo
Danio rerio [15] = experiment: Toxicity in wild type zebrafish embryos assessed as pericardial edema at 500 ug/ml treated for 96 hrs post fertilization starting from 6 hrs post fertilization by inverted microscopic analysis relative to control; format: organism-based; conditions: in vivo
Danio rerio [16] = species: Danio rerio; experiment: Toxicity in wild type zebrafish embryos assessed as unhatched embryo at 2500 ug/ml treated for 96 hrs post fertilization starting from 6 hrs post fertilization by inverted microscopic analysis relative to control; format: organism-based; conditions: in vivo
Danio rerio [17] = experiment: Toxicity in wild type zebrafish embryos assessed as pericardial edema at 2500 ug/ml treated for 96 hrs post fertilization starting from 6 hrs post fertilization by inverted microscopic analysis relative to control; format: organism-based; conditions: in vivo
[18] = Toxicity in wild type zebrafish embryos assessed as dead embryo at 2500 ug/ml treated for 96 hrs post fertilization starting from 6 hrs post fertilization by inverted microscopic analysis relative to control; format: organism-based, Danio rerio; conditions: in vivo, read-out: Activity
Danio rerio [19] = species: Danio rerio; experiment: Toxicity in wild type zebrafish embryos assessed as normal embryo at 500 ug/ml treated for 96 hrs post fertilization starting from 6 hrs post fertilization by inverted microscopic analysis relative to control; format: organism-based; conditions: in vivo
Danio rerio [20] = species: Danio rerio; experiment: Toxicity in wild type zebrafish embryos assessed as head malformation at 1000 ug/ml treated for 96 hrs post fertilization starting from 6 hrs post fertilization by inverted microscopic analysis relative to control; format: organism-based; conditions: in vivo
Danio rerio [21] = experiment: Toxicity in wild type zebrafish embryos assessed as yolk edema at 100 ug/ml treated for 96 hrs post fertilization starting from 6 hrs post fertilization by inverted microscopic analysis relative to control; format: organism-based; conditions: in vivo
Danio rerio [22] = species: Danio rerio; experiment: Toxicity in wild type zebrafish embryos assessed as head malformation at 2500 ug/ml treated for 96 hrs post fertilization starting from 6 hrs post fertilization by inverted microscopic analysis relative to control; format: organism-based; conditions: in vivo
Danio rerio [23] = experiment: Toxicity in wild type zebrafish embryos assessed as yolk edema at 2000 ug/ml treated for 96 hrs post fertilization starting from 6 hrs post fertilization by inverted microscopic analysis relative to control; format: organism-based; conditions: in vivo
Danio rerio [24] = species: Danio rerio; experiment: Toxicity in wild type zebrafish embryos assessed as otoliths at 100 ug/ml treated for 96 hrs post fertilization starting from 6 hrs post fertilization by inverted microscopic analysis relative to control; format: organism-based; conditions: in vivo
Danio rerio [25] = species: Danio rerio; experiment: Anti-melanogenic activity in wild type zebrafish 24 hrs post fertilization embryos assessed as decrease in body pigmentation at 100 ug/ml after 48 hrs; format: functional, organism-based
Danio rerio [26] = experiment: Toxicity in wild type zebrafish embryos assessed as pericardial edema at 2000 ug/ml treated for 96 hrs post fertilization starting from 6 hrs post fertilization by inverted microscopic analysis relative to control; format: organism-based; conditions: in vivo
Danio rerio [27] = species: Danio rerio; experiment: Toxicity in wild type zebrafish embryos assessed as unhatched embryo at 1000 ug/ml treated for 96 hrs post fertilization starting from 6 hrs post fertilization by inverted microscopic analysis relative to control; format: organism-based; conditions: in vivo
Danio rerio [28] = species: Danio rerio; experiment: Toxicity in wild type zebrafish embryos assessed as otoliths at 500 ug/ml treated for 96 hrs post fertilization starting from 6 hrs post fertilization by inverted microscopic analysis relative to control; format: organism-based; conditions: in vivo
Danio rerio [29] = species: Danio rerio; experiment: Toxicity in wild type zebrafish embryos assessed as teratogenic embryo at 100 ug/ml treated for 96 hrs post fertilization starting from 6 hrs post fertilization by inverted microscopic analysis relative to control; format: organism-based; conditions: in vivo
Danio rerio [30] = species: Danio rerio; experiment: Toxicity in wild type zebrafish embryos assessed as eyes at 1000 ug/ml treated for 96 hrs post fertilization starting from 6 hrs post fertilization by inverted microscopic analysis relative to control; format: organism-based; conditions: in vivo
Danio rerio [31] = species: Danio rerio; experiment: Toxicity in wild type zebrafish embryos assessed as eyes at 2500 ug/ml treated for 96 hrs post fertilization starting from 6 hrs post fertilization by inverted microscopic analysis relative to control; format: organism-based; conditions: in vivo
Danio rerio [32] = species: Danio rerio; experiment: Toxicity in wild type zebrafish embryos assessed as unhatched embryo at 2000 ug/ml treated for 96 hrs post fertilization starting from 6 hrs post fertilization by inverted microscopic analysis relative to control; format: organism-based; conditions: in vivo

O=c1cc(CO)occ1O [KOJIC ACID] gave an Activity (Danio rerio [1]) of 0%, an Activity (Danio rerio [2]) of 10% and an Activity (Danio rerio [3]) of 0%. The mortality at 2000 ug/ml [4] was 0%, the Activity (Danio rerio [5]) was 65% and the Activity (Danio rerio [6]) was 0%. For the same compound, the Activity (Danio rerio [7]) was 35%, the mortality at 500 ug/ml [8] was 0% and the Activity (Danio rerio [9]) was 6.67%. It also gave an Activity (Danio rerio [10]) of 0%, an Activity (Danio rerio [11]) of 5% and an Activity (Danio rerio [12]) of 86.67%. It also gave an Activity (Danio rerio [13]) of 100%, an Activity (Danio rerio [14]) of 0% and an Activity (Danio rerio [15]) of 86.67%. It also gave an Activity (Danio rerio [16]) of 0%, an Activity (Danio rerio [17]) of 100% and a mortality at 2500 ug/ml [18] of 0%. The Activity (Danio rerio [19]) was 13.33%, the Activity (Danio rerio [20]) was 0% and the Activity (Danio rerio [21]) was 0%. The Activity (Danio rerio [22]) was 98.33%, the Activity (Danio rerio [23]) was 0% and the Activity (Danio rerio [24]) was 0%. For the same compound, the Activity (Danio rerio [25]) was “inactive”, the Activity (Danio rerio [26]) was 100% and the Activity (Danio rerio [27]) was 0%. It also gave an Activity (Danio rerio [28]) of 0%, an Activity (Danio rerio [29]) of 35% and an Activity (Danio rerio [30]) of 0%. The Activity (Danio rerio [31]) was 0% and the Activity (Danio rerio [32]) was 0%.

Source: ChEMBL document CHEMBL4177616, “Potent anti-melanogenic activity and favorable toxicity profile of selected 4-phenyl hydroxycoumarins in the zebrafish model and the computational molecular modeling studies” (Bioorg Med Chem, 2017)
